Data: PubChem BioAssay AID2060501 (Molecular Pharmacology Branch, DTP, NCI, 2025)

Tested on: 282377-053-R-J1-PDC complex spheroids, viability
Assay: Anticancer human tumor 282377-053-R-J1-PDC patient-derived colon adenocarcinoma cell line growth inhibition [GQUAD]
Conditions: for IC50: curve of first compound; for viability, T/C: stronger effect = lower value
Method in brief: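 Multi-cell-type spheroids of tumor cells with HUVEC and mesenchymal stem cells, treated with drug combinations. Concentrations descend in half-log steps from near clinical Cmax, or from 10 microM where Cmax is unknown; viability read-out.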

[1] = second compound 0.0316 µM, first compound 0.0316 µM
[2] = second compound 0.0316 µM, first compound 0.1 µM
[3] = second compound 0.0316 µM, first compound 0.316 µM
[4] = second compound 0.0316 µM, first compound 1 µM
[5] = second compound 0.0316 µM, first compound 3.16 µM
[6] = second compound 0.0316 µM, first compound 10 µM
[7] = second compound 0.1 µM, first compound 0.0316 µM
[8] = second compound 0.1 µM, first compound 0.1 µM
[9] = second compound 0.1 µM, first compound 0.316 µM
[10] = second compound 0.1 µM, first compound 1 µM
[11] = second compound 0.1 µM, first compound 3.16 µM
[12] = second compound 0.1 µM, first compound 10 µM
[13] = second compound 0.316 µM, first compound 0.0316 µM
[14] = second compound 0.316 µM, first compound 0.1 µM
[15] = second compound 0.316 µM, first compound 0.316 µM
[16] = second compound 0.316 µM, first compound 1 µM
[17] = second compound 0.316 µM, first compound 3.16 µM
[18] = second compound 0.316 µM, first compound 10 µM
[19] = second compound 1 µM, first compound 0.0316 µM
[20] = second compound 1 µM, first compound 0.1 µM
[21] = second compound 1 µM, first compound 0.316 µM
[22] = second compound 1 µM, first compound 1 µM
[23] = second compound 1 µM, first compound 3.16 µM
[24] = second compound 1 µM, first compound 10 µM
[25] = second compound 3.16 µM, first compound 0.0316 µM
[26] = second compound 3.16 µM, first compound 0.1 µM
[27] = second compound 3.16 µM, first compound 0.316 µM
[28] = second compound 3.16 µM, first compound 1 µM
[29] = second compound 3.16 µM, first compound 3.16 µM
[30] = second compound 3.16 µM, first compound 10 µM
[31] = second compound 10 µM, first compound 0.0316 µM
[32] = second compound 10 µM, first compound 0.1 µM
[33] = second compound 10 µM, first compound 0.316 µM
[34] = second compound 10 µM, first compound 1 µM
[35] = second compound 10 µM, first compound 3.16 µM
[36] = second compound 10 µM, first compound 10 µM
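Also: spheroids exposed to compounds for 7 days before readout.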
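For viability, T/C in this document: percent of vehicle DMSO control viability with 100% = untreated-like growth.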

C=CCn1c(=O)c2cnc(Nc3ccc(N4CCN(C)CC4)cc3)nc2n1-c1cccc(C(C)(C)O)n1 + Cc1cnc(CNC(=O)c2c(=O)c3ccc(N4CCCN(C)CC4)nc3n3c2sc2ccccc23)cn1
IC50 (second compound 0.0316 µM): 1.59 µM
IC50 (second compound 0.1 µM): 1.47 µM
IC50 (second compound 0.316 µM): 0.731 µM
IC50 (second compound 1 µM): 0.651 µM
IC50 (second compound 3.16 µM): 0.295 µM
IC50 (second compound 10 µM): < 0.0316 µM
viability, T/C [1]: 109%
viability, T/C [2]: 102%
viability, T/C [3]: 107%
viability, T/C [4]: 67.7%
viability, T/C [5]: 24.1%
viability, T/C [6]: 15.1%
viability, T/C [7]: 115%
viability, T/C [8]: 115%
viability, T/C [9]: 99.6%
viability, T/C [10]: 62.8%
viability, T/C [11]: 24.6%
viability, T/C [12]: 11.7%
viability, T/C [13]: 102%
viability, T/C [14]: 97.8%
viability, T/C [15]: 73.4%
viability, T/C [16]: 40.4%
viability, T/C [17]: 22.3%
viability, T/C [18]: 12.5%
viability, T/C [19]: 75.5%
viability, T/C [20]: 75.8%
viability, T/C [21]: 65.1%
viability, T/C [22]: 40.2%
viability, T/C [23]: 22.6%
viability, T/C [24]: 13.6%
viability, T/C [25]: 55.7%
viability, T/C [26]: 60.1%
viability, T/C [27]: 45.4%
viability, T/C [28]: 42%
viability, T/C [29]: 26.2%
viability, T/C [30]: 12.1%
viability, T/C [31]: 44.4%
viability, T/C [32]: 48.5%
viability, T/C [33]: 43.1%
viability, T/C [34]: 36.6%
viability, T/C [35]: 1.31%
viability, T/C [36]: 0.34%

COc1ncnc(C2CC2)c1-c1ncc2cnn(Cc3ccc(-c4nc(C(F)(F)F)cn4C(C)C)cc3)c2n1 + Cc1cnc(CNC(=O)c2c(=O)c3ccc(N4CCCN(C)CC4)nc3n3c2sc2ccccc23)cn1
IC50 (second compound 0.0316 µM): > 10 µM
IC50 (second compound 0.1 µM): > 10 µM
IC50 (second compound 0.316 µM): > 10 µM
IC50 (second compound 1 µM): > 10 µM
IC50 (second compound 3.16 µM): 0.865 µM
IC50 (second compound 10 µM): < 0.0316 µM
viability, T/C [1]: 108%
viability, T/C [2]: 107%
viability, T/C [3]: 119%
viability, T/C [4]: 92.6%
viability, T/C [5]: 123%
viability, T/C [6]: 95.3%
viability, T/C [7]: 121%
viability, T/C [8]: 96.2%
viability, T/C [9]: 94.4%
viability, T/C [10]: 100%
viability, T/C [11]: 125%
viability, T/C [12]: 93.5%
viability, T/C [13]: 105%
viability, T/C [14]: 78.3%
viability, T/C [15]: 71.1%
viability, T/C [16]: 76.2%
viability, T/C [17]: 76.5%
viability, T/C [18]: 82.3%
viability, T/C [19]: 60.6%
viability, T/C [20]: 54.8%
viability, T/C [21]: 55.8%
viability, T/C [22]: 52.8%
viability, T/C [23]: 57.9%
viability, T/C [24]: 55.9%
viability, T/C [25]: 53.3%
viability, T/C [26]: 49.2%
viability, T/C [27]: 49.2%
viability, T/C [28]: 49.7%
viability, T/C [29]: 52.8%
viability, T/C [30]: 47.1%
viability, T/C [31]: 41.1%
viability, T/C [32]: 45.2%
viability, T/C [33]: 46.5%
viability, T/C [34]: 46.6%
viability, T/C [35]: 50.3%
viability, T/C [36]: 35.6%

Cc1[nH]c2ccccc2c1CCNCc1ccc(/C=C/C(=O)NO)cc1 + Cc1cnc(CNC(=O)c2c(=O)c3ccc(N4CCCN(C)CC4)nc3n3c2sc2ccccc23)cn1
IC50 (second compound 0.0316 µM): 0.14 µM
IC50 (second compound 0.1 µM): 0.122 µM
IC50 (second compound 0.316 µM): 0.0637 µM
IC50 (second compound 1 µM): 0.0177 µM
IC50 (second compound 3.16 µM): < 0.000999 µM
IC50 (second compound 10 µM): < 0.000999 µM
viability, T/C (second compound 0.0316 µM, first compound 0.000999 µM): 86.4%
viability, T/C (second compound 0.0316 µM, first compound 0.00316 µM): 87.7%
viability, T/C (second compound 0.0316 µM, first compound 0.00999 µM): 129%
viability, T/C [1]: 95.2%
viability, T/C (second compound 0.0316 µM, first compound 0.0999 µM): 67.7%
viability, T/C [3]: 7.24%
viability, T/C (second compound 0.1 µM, first compound 0.000999 µM): 107%
viability, T/C (second compound 0.1 µM, first compound 0.00316 µM): 86.6%
viability, T/C (second compound 0.1 µM, first compound 0.00999 µM): 106%
viability, T/C [7]: 84.3%
viability, T/C (second compound 0.1 µM, first compound 0.0999 µM): 60.7%
viability, T/C [9]: 1.3%
viability, T/C (second compound 0.316 µM, first compound 0.000999 µM): 88.4%
viability, T/C (second compound 0.316 µM, first compound 0.00316 µM): 75.8%
viability, T/C (second compound 0.316 µM, first compound 0.00999 µM): 86.2%
viability, T/C [13]: 67.8%
viability, T/C (second compound 0.316 µM, first compound 0.0999 µM): 37.9%
viability, T/C [15]: 2.14%
viability, T/C (second compound 1 µM, first compound 0.000999 µM): 62.9%
viability, T/C (second compound 1 µM, first compound 0.00316 µM): 53.8%
viability, T/C (second compound 1 µM, first compound 0.00999 µM): 56.3%
viability, T/C [19]: 43%
viability, T/C (second compound 1 µM, first compound 0.0999 µM): 33%
viability, T/C [21]: 0.07%
viability, T/C (second compound 3.16 µM, first compound 0.000999 µM): 51.1%
viability, T/C (second compound 3.16 µM, first compound 0.00316 µM): 48%
viability, T/C (second compound 3.16 µM, first compound 0.00999 µM): 38.5%
viability, T/C [25]: 40.5%
viability, T/C (second compound 3.16 µM, first compound 0.0999 µM): 19.6%
viability, T/C [27]: 0.2%
viability, T/C (second compound 10 µM, first compound 0.000999 µM): 33.8%
viability, T/C (second compound 10 µM, first compound 0.00316 µM): 32.9%
viability, T/C (second compound 10 µM, first compound 0.00999 µM): 47%
viability, T/C [31]: 37%
viability, T/C (second compound 10 µM, first compound 0.0999 µM): 0.26%
viability, T/C [33]: 0.36%

O=C(NO)c1cnc(N2CCN(S(=O)(=O)c3ccc4ccccc4c3)CC2)nc1 + Cc1cnc(CNC(=O)c2c(=O)c3ccc(N4CCCN(C)CC4)nc3n3c2sc2ccccc23)cn1
IC50 (second compound 0.0316 µM): 0.36 µM
IC50 (second compound 0.1 µM): 0.406 µM
IC50 (second compound 0.316 µM): 0.189 µM
IC50 (second compound 1 µM): 0.0823 µM
IC50 (second compound 3.16 µM): < 0.0316 µM
IC50 (second compound 10 µM): < 0.0316 µM
viability, T/C [1]: 98.6%
viability, T/C [2]: 78.5%
viability, T/C [3]: 57.9%
viability, T/C [4]: 2.29%
viability, T/C [5]: 0.07%
viability, T/C [6]: 0.11%
viability, T/C [7]: 99.3%
viability, T/C [8]: 88%
viability, T/C [9]: 63.5%
viability, T/C [10]: 1.62%
viability, T/C [11]: 0.05%
viability, T/C [12]: 0.11%
viability, T/C [13]: 84.3%
viability, T/C [14]: 64.7%
viability, T/C [15]: 39.2%
viability, T/C [16]: 1.28%
viability, T/C [17]: 0.04%
viability, T/C [18]: 0.08%
viability, T/C [19]: 55.3%
viability, T/C [20]: 46.6%
viability, T/C [21]: 27.1%
viability, T/C [22]: 0.1%
viability, T/C [23]: 0.05%
viability, T/C [24]: 0.09%
viability, T/C [25]: 41%
viability, T/C [26]: 53.3%
viability, T/C [27]: 22.9%
viability, T/C [28]: 0.12%
viability, T/C [29]: 0.1%
viability, T/C [30]: 0.15%
viability, T/C [31]: 36.9%
viability, T/C [32]: 9.96%
viability, T/C [33]: 0.28%
viability, T/C [34]: 0.24%
viability, T/C [35]: 0.17%
viability, T/C [36]: 0.2%
